Source: publication PMC11726183, “Design, synthesis, in vitro, and in silico studies of novel isatin-hybrid hydrazones as potential triple-negative breast cancer agents” (RSC Advances, 2025)
Read-outs that look alike come from different tables or passages of the source.

Tests used:
Format in all cases: cell-based, human
[1] = system: MDA-MB-231 breast cancer cell line; test: MTT cytotoxicity assay on breast cancer cell line MDA-MB-231; settings: for IC50: read-out: IC50 values, breast cancer cell line MDA-MB-231; for % viability, breast cancer cell line MDA-MB-231: concentration for the value not given (6.5-50 μM tested)
Source text: (§1) Breast cancer cells MDA-MB-231 were used to investigate the synthesized compounds' anticancer properties. Because these cancer cells lack estrogen receptors (ER), progesterone receptors (PR), and human epidermal growth factor receptor 2 (HER2), they are also known as triple-negative breast cancer cells (TNBC).[44] These receptors are generally utilized as target proteins in cancer treatment and are often overexpressed in cancer cells. […] At the same time human normal breast epithelial cell line MCF-10A was kept as a control in the experiment to check out whether the cytotoxic effects of the compounds were selective for malignant cells in comparison to non-malignant cells. Variable concentrations (6.5 μM, 12.5 μM, 25 μM, and 50 μM) of the synthesized compounds 5–25 were used to investigate the prohibition of growth in the human breast cancer cell line MDA-MB-231 and the non-tumorigenic MCF-10. The MTT [3-(4,5-dimethylthiazol-2-yl)-2,5-diphenyltetrazolium bromide] assay was used to determine the reduction in cancer cell viability induced by cytotoxic agents. […] IBM SPSS Statistics 26 software was used for the analysis of dose–response and computation of IC50 values.
(§2) In vitro, cytotoxicity assay for the synthetic derivatives was determined by performing an MTT (yellow tetrazolium salt, 3-(4,5-dimethylthizol-2-yl)-2,5-diphenyl tetrazolium bromide) assay by using an aggressive breast cancer cell line MDA-MB-231.[51] Human breast normal cell line MCF-10A was kept as a control in the study.[52,53] Cells were cultured in DMEM augmented with 10% FBS and 1% antibiotics (100 U per mL penicillin). The cells were sowed in a 96-well plate at a 1.0 × 10^4 cells per well density and incubated for 24 h at 37 °C in 5% CO2. The medium was discarded, and both the cell lines were treated with different concentrations (6.5 μM, 12.5 μM, 25 μM, and 50 μM) of synthetic hydrazone derivatives.[54] After 48 h of incubation 20 μL of MTT solution (5 mg mL^−1) was pipetted into each well and incubated for another 4 h.[55] Later the medium was discarded, and the precipitate of formazan was dissolved in DMSO. The absorbance of the mixtures was calculated using a microplate reader at 570 nm. Triplicates were used for performing all experiments and the cytotoxicity was expressed as a percentage of cell viability compared to untreated control cells.[54]1 [drawing 22]

[2] = MTT cytotoxicity assay on normal breast epithelial cell line MCF-10A (control); settings: human, MTT, 48 h, concentration for the value not given (6.5-50 μM tested)
Source text: as §1, §2

[3] = system: normal cell line MCF-10; test: as above; settings: for IC50: read-out: IC50 values, normal cell line MCF-10
Source text: as §1, §2

[4] = Homo sapiens, MDA-MB-231, MTT, 48 h
[5] = MCF-10A normal breast epithelial cells
[6] = Homo sapiens, MCF10, MTT, 48 h, unit from text (highest concentration 50 μM)

| Molecule | IC50 ([1]; Homo sapiens, MDA-MB-231, 48 h) | % viability, breast cancer cell line MDA-MB-231 ([1]; MTT, 48 h) | viability at 48 h [2] | IC50 ([3]; Homo sapiens, MCF10, 48 h) | IC50 [1, 4] | viability at 48 h [2, 5] | IC50 [3, 6] | IC50 ([1]; MTT, 48 h) | % viability, normal cell line MCF-10 ([3]; MTT, 48 h, concentration for the value not given (6.5-50 μM tested)) | IC50 ([3]; MTT, 48 h, unit from text (highest concentration 50 μM)) |
| --- | --- | --- | --- | --- | --- | --- | --- | --- | --- | --- |
| O=C(N/N=C1/C(=O)N(Cc2ccccc2)c2ccccc21)c1cccc(Cl)c1 [Compound 5, (E)-N′-(1-Benzyl-2-oxoindolin-3-ylidene)-3-chlorobenzohydrazide] | 26.4 ± 0.8 µM | 27.11% | 80.1% | > 50 µM | – | – | – | – | – | – |
| O=C(Cc1ccccc1)N/N=C1/C(=O)N(Cc2ccccc2)c2ccccc21 [Compound 24, (E)-N′-(1-Benzyl-2-oxoindolin-3-ylidene)-2-phenylacetohydrazide] | – | 29.54% | – | – | 24.5 ± 0.8 µM | 78.5% | > 50 µM | – | – | – |
| O=C(Cc1ccc(F)cc1F)N/N=C1/C(=O)N(Cc2ccccc2)c2ccccc21 [Compound 21, (E)-N′-(1-Benzyl-2-oxoindolin-3-ylidene)-2-(2,4-difluorophenyl)acetohydrazide] | 22.2 ± 0.7 µM | 22.46% | 85.7% | > 50 µM | – | – | – | – | – | – |
| O=C(N/N=C1/C(=O)N(Cc2ccccc2)c2ccccc21)c1cc2ccccc2cc1O [Compound 25, (E)-N′-(1-Benzyl-2-oxoindolin-3-ylidene)-3-hydroxy-2-naphthohydrazide] | 30.6 ± 0.4 µM | 31.67% | 76.3% | > 50 µM | – | – | – | – | – | – |
| O=C(Cc1ccccc1C(F)(F)F)N/N=C1/C(=O)N(Cc2ccccc2)c2ccccc21 [Compound 10, (E)-N′-(1-Benzyl-2-oxoindolin-3-ylidene)-2-(2-(trifluoromethyl)phenyl)acetohydrazide] | – | 29.12% | – | – | 25.4 ± 0.8 µM | 84.9% | > 50 µM | – | – | – |
| O=C(Cc1ccc(C(F)(F)F)cc1)N/N=C1/C(=O)N(Cc2ccccc2)c2ccccc21 [Compound 12, (E)-N′-(1-Benzyl-2-oxoindolin-3-ylidene)-2-(4-(trifluoromethyl)phenyl)acetohydrazide] | – | 36.52% | – | – | 31.2 ± 0.9 µM | 80.4% | > 50 µM | – | – | – |
| O=C(N/N=C1/C(=O)N(Cc2ccccc2)c2ccccc21)c1ccco1 [Compound 16, (E)-N′-(1-Benzyl-2-oxoindolin-3-ylidene)furan-2-carbohydrazide] | 29.2 ± 0.7 µM | 29.40% | 79.9% | > 50 µM | – | – | – | – | – | – |
| COc1ccc(C(=O)N/N=C2/C(=O)N(Cc3ccccc3)c3ccccc32)cc1 [Compound 6, (E)-N′-(1-Benzyl-2-oxoindolin-3-ylidene)-4-methoxybenzohydrazide] | 25.8 ± 0.4 µM | 26.13% | 81.1% | > 50 µM | – | – | – | – | – | – |
| O=C(N/N=C1/C(=O)N(Cc2ccccc2)c2ccccc21)c1ccc(C(F)(F)F)cc1 [Compound 17, (E)-N′-(1-Benzyl-2-oxoindolin-3-ylidene)-4-(trifluoromethyl)benzohydrazide] | 37.5 ± 0.9 µM | 38.09% | 77.6% | > 50 µM | – | – | – | – | – | – |
| O=C(N/N=C1/C(=O)N(Cc2ccccc2)c2ccccc21)c1ccccc1Cl [Compound 20, (E)-N′-(1-Benzyl-2-oxoindolin-3-ylidene)-2-chlorobenzohydrazide] | 28.8 ± 0.6 µM | 34.56% | 77.6% | > 50 µM | – | – | – | – | – | – |
| O=C(N/N=C1/C(=O)N(Cc2ccccc2)c2ccccc21)c1ccccc1 [Compound 11, (E)-N′-(1-Benzyl-2-oxoindolin-3-ylidene)benzohydrazide] | 28.4 ± 0.5 µM | 25.41% | 82% | > 50 µM | – | – | – | – | – | – |
| Cc1ccccc1C(=O)N/N=C1/C(=O)N(Cc2ccccc2)c2ccccc21 [Compound 15, (E)-N′-(1-Benzyl-2-oxoindolin-3-ylidene)-2-methylbenzohydrazide] | 24.4 ± 0.6 µM | 23.77% | 84.3% | > 50 µM | – | – | – | – | – | – |
| O=C(N/N=C1/C(=O)N(Cc2ccccc2)c2ccccc21)c1cccc2ccccc12 [Compound 13, (E)-N′-(1-Benzyl-2-oxoindolin-3-ylidene)-1-naphthohydrazide] | 28.6 ± 0.5 µM | 29.01% | 79.1% | > 50 µM | – | – | – | – | – | – |
| Cc1ccc(F)c(C(=O)N/N=C2/C(=O)N(Cc3ccccc3)c3ccccc32)c1 [Compound 7, (E)-N′-(1-Benzyl-2-oxoindolin-3-ylidene)-2-fluoro-5-methylbenzohydrazide] | 33.6 ± 0.5 µM | 30.01% | 79.3% | > 50 µM | – | – | – | – | – | – |
| (E)-1-Benzyl-3-((2-(4-nitrophenyl)-2-oxoethyl)imino)indolin-2-one [Compound 23] | – | 17.37% | – | – | – | – | – | 15.8 ± 0.6 µM | 75.23% | > 50 µM |
| O=C(N/N=C1/C(=O)N(Cc2ccccc2)c2ccccc21)c1ccncc1 [Compound 8, (E)-N′-(1-Benzyl-2-oxoindolin-3-ylidene)isonicotinohydrazide] | 16.8 ± 0.9 µM | 19.13% | 78.1% | > 50 µM | – | – | – | – | – | – |
| O=C(N/N=C1/C(=O)N(Cc2ccccc2)c2ccccc21)c1ccc(Br)cc1 [Compound 14, (E)-N′-(1-Benzyl-2-oxoindolin-3-ylidene)-4-bromobenzohydrazide] | 36.8 ± 0.7 µM | 42.11% | 85.4% | > 50 µM | – | – | – | – | – | – |
| Cc1ccc(C(=O)N/N=C2/C(=O)N(Cc3ccccc3)c3ccccc32)cc1F [Compound 9, (E)-N′-(1-Benzyl-2-oxoindolin-3-ylidene)-3-fluoro-4-methylbenzohydrazide] | 27.4 ± 0.5 µM | 25.61% | 76.2% | > 50 µM | – | – | – | – | – | – |
| O=C(N/N=C1\C(=O)N(Cc2ccccc2)c2ccccc21)c1cccnc1 [Compound 18, (Z)-N′-(1-Benzyl-2-oxoindolin-3-ylidene)nicotinohydrazide] | 34.6 ± 0.4 µM | 41.19% | 85.1% | > 50 µM | – | – | – | – | – | – |
| O=C(Cc1ccccc1Nc1c(Cl)cccc1Cl)N/N=C1/C(=O)N(Cc2ccccc2)c2ccccc21 [Compound 19, (E)-N′-(1-Benzyl-2-oxoindolin-3-ylidene)-2-(2-((2,6-dichlorophenyl)amino)phenyl) acetohydrazide] | – | 37.23% | – | – | 29.2 ± 0.4 µM | 80.3% | > 50 µM | – | – | – |
| O=C(N/N=C1/C(=O)N(Cc2ccccc2)c2ccccc21)c1ccccc1Br [Compound 22, (E)-N′-(1-Benzyl-2-oxoindolin-3-ylidene)-2-bromobenzohydrazide] | 26.1 ± 0.7 µM | 21.28% | 78.4% | > 50 µM | – | – | – | – | – | – |
